# Target: T1, Xanthine oxidase (XOD) (Bos taurus, UniProt P80457)
# T1 construct: gene XDH
# Experiment: spectrophotometric XOD inhibition assay at […] nm with xanthine substrate, cow milk enzyme
# Assay type: biochemical
# T1 sequence (P80457 2-1332): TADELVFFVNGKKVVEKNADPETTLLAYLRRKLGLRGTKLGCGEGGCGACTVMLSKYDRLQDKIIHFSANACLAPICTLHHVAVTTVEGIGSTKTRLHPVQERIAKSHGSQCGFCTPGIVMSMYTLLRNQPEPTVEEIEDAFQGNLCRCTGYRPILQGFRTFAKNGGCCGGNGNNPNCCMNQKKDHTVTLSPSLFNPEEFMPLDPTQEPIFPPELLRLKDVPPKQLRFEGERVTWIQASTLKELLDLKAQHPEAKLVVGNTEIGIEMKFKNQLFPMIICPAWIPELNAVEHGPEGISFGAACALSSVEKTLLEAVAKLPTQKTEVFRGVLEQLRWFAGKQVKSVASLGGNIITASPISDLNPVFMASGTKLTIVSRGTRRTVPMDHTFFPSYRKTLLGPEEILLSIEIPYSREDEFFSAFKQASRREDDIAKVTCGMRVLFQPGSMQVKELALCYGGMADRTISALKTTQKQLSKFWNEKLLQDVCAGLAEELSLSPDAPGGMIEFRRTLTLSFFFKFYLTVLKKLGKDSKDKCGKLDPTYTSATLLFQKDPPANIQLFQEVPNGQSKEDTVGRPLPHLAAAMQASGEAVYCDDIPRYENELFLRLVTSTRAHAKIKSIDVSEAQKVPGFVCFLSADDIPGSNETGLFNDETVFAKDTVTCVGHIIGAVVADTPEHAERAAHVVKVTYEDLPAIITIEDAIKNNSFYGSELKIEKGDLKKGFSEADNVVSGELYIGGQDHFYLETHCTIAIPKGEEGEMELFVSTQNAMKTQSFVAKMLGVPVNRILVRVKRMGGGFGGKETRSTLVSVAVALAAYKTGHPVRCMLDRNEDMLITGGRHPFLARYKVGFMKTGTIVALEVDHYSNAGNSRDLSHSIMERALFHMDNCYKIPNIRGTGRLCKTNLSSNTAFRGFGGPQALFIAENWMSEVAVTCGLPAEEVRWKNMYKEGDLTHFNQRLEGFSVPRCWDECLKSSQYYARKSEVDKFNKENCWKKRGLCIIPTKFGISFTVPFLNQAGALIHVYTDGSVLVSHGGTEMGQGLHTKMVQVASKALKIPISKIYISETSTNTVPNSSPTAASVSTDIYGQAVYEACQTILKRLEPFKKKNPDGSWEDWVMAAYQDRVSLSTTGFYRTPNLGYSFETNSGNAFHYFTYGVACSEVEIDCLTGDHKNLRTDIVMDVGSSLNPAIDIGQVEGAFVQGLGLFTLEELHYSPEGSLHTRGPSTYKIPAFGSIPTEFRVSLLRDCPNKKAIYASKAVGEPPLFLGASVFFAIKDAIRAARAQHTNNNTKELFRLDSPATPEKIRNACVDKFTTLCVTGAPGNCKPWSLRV
smiles,measurement,value
"COc1ccc2c(c1OC)CN1CCc3cc4c(cc3C1=C2)OCO4 [DHB, Dihydroberberine]",IC50,34.4 ± 2.84 µM
